In PubChem BioAssay (NCI):
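Tested at 5 concentrations; 48 h exposure; 96-well plates; endpoints linearly interpolated, else capped at highest concentration. GI50 marks 50% less growth. Definition used: TGI = concentration required for complete inhibition of growth.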

Tests used:
Experiment in all cases: NCI-60 cell line screen, 48 h
[1] = system: 786-0 renal
[2] = system: HOP-92 NSCLC
[3] = system: KM12 colon
[4] = system: MDA-MB-231 breast
[5] = system: MDA-MB-435
[6] = system: OVCAR-4 ovarian
[7] = system: OVCAR-5 ovarian
[8] = system: RXF 393 renal
[9] = system: SK-MEL-5 melanoma
[10] = system: COLO 205 colon

c1ccc2c(c1)[nH]c1nc3cc(-c4ccc5nc6c(nc5c4)[nH]c4ccccc46)ccc3nc12
TGI [1]: > 100 µM | TGI [2]: > 21.5 µM | TGI [3]: > 100 µM | TGI [4]: 97 µM | TGI [5]: > 100 µM | TGI [6]: > 100 µM | TGI [7]: > 100 µM | TGI [8]: > 100 µM | TGI [9]: > 100 µM

COc1ccc(N[C@H](CSc2ccc(C)cc2)c2ccc(F)cc2)cc1
TGI [1]: > 100 µM | TGI [10]: > 100 µM | TGI [3]: > 100 µM | TGI [4]: > 100 µM | TGI [5]: > 100 µM | TGI [6]: > 100 µM | TGI [7]: > 100 µM | TGI [8]: > 100 µM | TGI [9]: > 100 µM

CCC(C(=O)O)c1ccc(OCc2ccccc2)cc1 (stereo not given)
TGI [10]: > 100 µM | TGI [2]: > 100 µM | TGI [3]: > 100 µM | TGI [6]: > 100 µM | TGI [7]: > 100 µM | TGI [8]: > 100 µM | TGI [9]: > 100 µM

CC(=O)OC(C)c1cc2c(s1)C(=O)c1sccc1C2=O (stereo not given)
TGI [10]: 3.59 µM | TGI [2]: 16.7 µM | TGI [3]: 3.36 µM | TGI [4]: 16.8 µM | TGI [6]: 3.5 µM | TGI [7]: 3.3 µM | TGI [8]: 3.27 µM | TGI [9]: 0.32 µM

Cc1nn(C(=O)Cc2ccccc2)c2c1C(c1ccccc1O)SC(N)=N2 (stereo not given)
TGI [1]: > 100 µM | TGI [10]: > 100 µM | TGI [3]: > 100 µM | TGI [4]: > 100 µM | TGI [5]: > 100 µM | TGI [9]: > 100 µM

CN(C)C(CN)CC1=C(CC(CN)N(C)C)CCC1 (stereo not given)
TGI [10]: > 100 µM | TGI [2]: > 100 µM | TGI [3]: > 100 µM | TGI [6]: > 100 µM | TGI [7]: > 100 µM | TGI [8]: > 100 µM | TGI [9]: > 100 µM

NC(=O)C(=O)N/N=C1/c2ccccc2CC1C1(O)C(=O)Nc2c(Cl)cc(Cl)cc21 (stereo not given)
TGI [10]: > 100 µM | TGI [2]: > 100 µM | TGI [3]: > 100 µM | TGI [6]: > 100 µM | TGI [7]: > 100 µM | TGI [8]: > 100 µM | TGI [9]: > 100 µM

N#Cc1nc(-c2cc([N+](=O)[O-])cc([N+](=O)[O-])c2)oc1N
TGI [1]: > 10 µM | TGI [10]: > 10 µM | TGI [2]: > 10 µM | TGI [3]: > 10 µM | TGI [4]: > 10 µM | TGI [5]: > 10 µM | TGI [6]: > 10 µM | TGI [8]: > 10 µM | TGI [9]: > 10 µM

Nc1nn2c(C(Br)Br)cc(C(Br)Br)nc2c1[N+](=O)[O-]
TGI [1]: 1.08 µM | TGI [10]: 1.94 µM | TGI [3]: 2.83 µM | TGI [4]: 2.95 µM | TGI [5]: 1.76 µM | TGI [7]: 3.12 µM | TGI [8]: 4.35 µM | TGI [9]: 3.06 µM

CCOC1CC(=O)c2c(Br)sc(Br)c21 (stereo not given)
TGI [1]: 94.7 µM | TGI [10]: 38.4 µM | TGI [2]: 35.3 µM | TGI [3]: 37.2 µM | TGI [4]: 35.9 µM | TGI [5]: 33.6 µM | TGI [7]: 45.3 µM | TGI [8]: 35.5 µM | TGI [9]: > 100 µM

CCOC(=O)C1=C(C(C)=O)CSC(c2ccccc2)=N1
TGI [10]: > 100 µM | TGI [2]: > 100 µM | TGI [3]: > 100 µM | TGI [6]: > 100 µM | TGI [7]: > 100 µM | TGI [8]: > 100 µM | TGI [9]: > 100 µM

COc1ccc(/C(=N/O)c2ccccc2-c2nc3ccccc3c(=O)n2-c2ccc(S(=O)(=O)Nc3ncccn3)cc2)cc1C
TGI [10]: > 31.6 µM | TGI [2]: 30.4 µM | TGI [3]: > 31.6 µM | TGI [4]: > 31.6 µM | TGI [5]: 27.3 µM | TGI [6]: > 31.6 µM | TGI [7]: > 31.6 µM | TGI [8]: 19.8 µM | TGI [9]: 25.4 µM

COc1cc(/C=C2\C(=O)N(C(=O)Cc3ccccc3)N=C2C)ccc1O
TGI [1]: > 100 µM | TGI [10]: > 100 µM | TGI [3]: > 100 µM | TGI [6]: > 100 µM | TGI [7]: > 100 µM | TGI [9]: > 100 µM

O=C(CP(=O)(O)O)c1cccs1
TGI [1]: > 100 µM | TGI [10]: > 100 µM | TGI [2]: > 100 µM | TGI [3]: > 100 µM | TGI [7]: > 100 µM | TGI [9]: > 100 µM

COC(=O)c1ccccc1/C=C1/Cc2ccccc2C1=O
TGI [10]: > 100 µM | TGI [2]: > 100 µM | TGI [3]: 96.5 µM | TGI [4]: > 100 µM | TGI [5]: > 100 µM | TGI [6]: > 100 µM | TGI [7]: > 100 µM | TGI [8]: > 100 µM | TGI [9]: 62.8 µM

COCOc1ccc(OC)cc1
TGI [10]: > 100 µM | TGI [2]: > 100 µM | TGI [3]: > 100 µM | TGI [6]: > 100 µM | TGI [7]: > 100 µM | TGI [8]: > 100 µM | TGI [9]: > 100 µM

CCC[C@H]1C(=O)N=C(N)N1C(=O)OCc1ccccc1
TGI [1]: > 100 µM | TGI [10]: > 100 µM | TGI [3]: > 100 µM | TGI [4]: > 100 µM | TGI [5]: > 100 µM | TGI [6]: > 100 µM | TGI [7]: > 100 µM | TGI [8]: > 100 µM | TGI [9]: > 100 µM

Cc1cc(-c2nc3c(O)cccc3s2)ccc1N
TGI [1]: 95.1 µM | TGI [10]: > 100 µM | TGI [2]: 58.9 µM | TGI [3]: 65 µM | TGI [4]: 61.7 µM | TGI [5]: 38.2 µM | TGI [8]: > 100 µM | TGI [9]: > 100 µM

CCCCN1CCN(c2ccc3nc(-c4ccc5nc(-c6ccc(C(F)(F)F)cc6)[nH]c5c4)[nH]c3c2)CC1
GI50 [10]: 1.45 µM | TGI [10]: 2.95 µM | GI50 [2]: 1.19 µM | TGI [2]: 2.64 µM | GI50 [3]: 1.12 µM | TGI [3]: 2.68 µM | GI50 [4]: 1.47 µM | TGI [4]: 2.94 µM | GI50 [5]: 1.59 µM | TGI [5]: 3.01 µM | GI50 [6]: 0.859 µM | TGI [6]: 2.39 µM | GI50 [7]: 1.87 µM | TGI [7]: 3.32 µM | GI50 [8]: 1.13 µM | TGI [8]: 2.49 µM | GI50 [9]: 1.6 µM | TGI [9]: 3.09 µM

N#Cc1c(-c2ccccc2)/c(=C\Nc2ccc(Cl)cc2)c(=O)n2c1nc1ccccc12
TGI [1]: > 100 µM | TGI [10]: > 100 µM | TGI [3]: > 100 µM | TGI [4]: > 100 µM | TGI [5]: > 100 µM | TGI [6]: > 100 µM | TGI [7]: > 100 µM | TGI [8]: > 100 µM | TGI [9]: > 100 µM

CC(C)(C)N=c1n(C(C)(C)C)oc(=O)n1C(C)(C)C
TGI [1]: > 100 µM | TGI [10]: > 100 µM | TGI [2]: > 100 µM | TGI [3]: > 100 µM | TGI [4]: > 100 µM | TGI [6]: > 100 µM | TGI [7]: > 100 µM | TGI [8]: > 100 µM | TGI [9]: > 100 µM

CCOC(=O)c1[nH]cc(C)c1-c1ccn(-c2ccccc2)c1
TGI [1]: > 100 µM | TGI [10]: > 100 µM | TGI [2]: 82.8 µM | TGI [3]: > 100 µM | TGI [5]: > 100 µM | TGI [6]: > 100 µM | TGI [7]: > 100 µM | TGI [8]: > 100 µM | TGI [9]: 63.9 µM

Cc1cn2c(/C=C3/C(=O)Nc4cccc(Cl)c43)c(Cl)nc2s1
TGI [1]: > 100 µM | TGI [2]: > 100 µM | TGI [3]: > 100 µM | TGI [4]: > 100 µM | TGI [5]: > 100 µM | TGI [6]: > 100 µM | TGI [7]: > 100 µM | TGI [8]: 87 µM

CCC12C[N+]3([O-])CCc4c([nH]c5ccccc45)C(C(=O)OC)(c4cc5c(cc4OC)N(C)C4C(O)(C(=O)OC)C(OC(C)=O)C6(CC)C=CCN7CCC54C76)CC(C3)C1O2 (stereo not given)
TGI [1]: 7.95 µM | TGI [10]: 4.44 µM | TGI [2]: 21.3 µM | TGI [3]: 15.9 µM | TGI [6]: 45.9 µM | TGI [7]: 33.3 µM | TGI [8]: 4.65 µM | TGI [9]: 12 µM

CC(=O)NS(=O)(=O)c1ccc(NC(=O)c2c3ccccc3nc3ccccc23)cc1
TGI [1]: > 100 µM | TGI [10]: > 100 µM | TGI [2]: > 100 µM | TGI [3]: > 100 µM | TGI [4]: > 100 µM | TGI [5]: > 100 µM | TGI [6]: > 100 µM | TGI [7]: > 100 µM | TGI [9]: > 100 µM
